pEC50: −log10 of the molar value.
Tests used:
[1] = The EC50 was calculated as the concentration of drug that increased the percentage of formazan production in drug treated,virus infected cells to 50% of that produced by drug free uninfected cells on serotype 10.
[2] = The EC50 was calculated as the concentration of drug that increased the percentage of formazan production in drug treated, virus infected cells to 50% of that produced by drug free uninfected cells on serotype 2.
[3] = The EC50 was calculated as the concentration of drug that increased the percentage of formazan production in drug treated, virus infected cells to 50% of that produced by drug free uninfected cells on serotype 1A.
[4] = Increased percentage of formazan production in drug treated virus infected cells to equal 50% of control drug free uninfected cells on serotype 14
[5] = The EC50 was calculated as the concentration of drug that increased the percentage of formazan production in drug treated, virus infected cells to 50% of that produced by drug free uninfected cells on serotype 1A.; remark: listed apart in the source

Row | pEC50 [1] | pEC50 [2] | pEC50 [3] | pEC50 [4] | pEC50 [5] | SMILES
1 | 5.85 | 6.00 | 6.25 |  |  | CCOC(=O)/C=C/[C@H](CCC(N)=O)NC(=O)[C@@H](CC(=O)[C@H](CC(C)C)NC(=O)SC1CCCC1)Cc1ccc(C)cc1 [(E)-(S)-6-Carbamoyl-4-[(2R,5S)-5-cyclopentylsulfanylcarbonylamino-7-methyl-2-(4-methyl-benzyl)-4-oxo-octanoylamino]-hex-2-enoic acid ethyl ester]
2 |  |  |  | 7.70 | 6.77 | CCOC(=O)/C=C/[C@H](CCC(N)=O)NC(=O)[C@@H](CC(=O)[C@@H](NC(=O)SC1CCCC1)C(C)C)Cc1ccc(F)cc1 [(E)-(S)-6-Carbamoyl-4-[(2R,5S)-5-cyclopentylsulfanylcarbonylamino-2-(4-fluoro-benzyl)-6-methyl-4-oxo-heptanoylamino]-hex-2-enoic acid ethyl ester]
3 |  |  |  | 6.17 |  | CCOC(=O)/C=C/[C@H](CCC(N)=O)NC(=O)[C@@H](CC(=O)[C@H](CC(C)C)NC(=O)SCc1ccccc1)Cc1ccccc1 [(E)-(S)-4-((2R,5S)-2-Benzyl-5-benzylsulfanylcarbonylamino-7-methyl-4-oxo-octanoylamino)-6-carbamoyl-hex-2-enoic acid ethyl ester]
4 |  |  |  | 6.72 |  | CCOC(=O)/C=C/[C@H](CCC(N)=O)NC(=O)[C@@H](CC(=O)[C@H](CC(C)C)NC(=O)SC1CCCC1)Cc1ccccc1 [(E)-(S)-4-((2R,5S)-2-Benzyl-5-cyclopentylsulfanylcarbonylamino-7-methyl-4-oxo-octanoylamino)-6-carbamoyl-hex-2-enoic acid ethyl ester]

Second part, the compound before the results:

Row | SMILES | pEC50 [1] | pEC50 [2] | pEC50 [3] | pEC50 [4] | pEC50 [5]
5 | CCOC(=O)/C=C/[C@H](CCC(N)=O)NC(=O)[C@@H](CC(=O)[C@@H](NC(=O)SC1CCCC1)C(C)C)Cc1ccccc1 [(E)-(S)-4-((2R,5S)-2-Benzyl-5-cyclopentylsulfanylcarbonylamino-6-methyl-4-oxo-heptanoylamino)-6-carbamoyl-hex-2-enoic acid ethyl ester] | 7.46 | 7.00 |  | 7.70 | 
6 | CCOC(=O)/C=C/[C@H](CCC(N)=O)NC(=O)[C@@H](CC(=O)[C@@H](NC(=O)SCc1ccccc1)C(C)C)Cc1ccccc1 [(E)-(S)-4-((2R,5S)-2-Benzyl-5-benzylsulfanylcarbonylamino-6-methyl-4-oxo-heptanoylamino)-6-carbamoyl-hex-2-enoic acid ethyl ester] |  |  |  | 6.72 | 
7 | CCOC(=O)/C=C/[C@H](CCC(N)=O)NC(=O)[C@@H](CC(=O)[C@@H](NC(=O)SC1CCCC1)C(C)C)Cc1ccc(C)cc1 [(E)-(S)-6-Carbamoyl-4-[(2R,5S)-5-cyclopentylsulfanylcarbonylamino-6-methyl-2-(4-methyl-benzyl)-4-oxo-heptanoylamino]-hex-2-enoic acid ethyl ester] | 7.22 | 6.89 |  | 8.22 | 6.80
8 | CCOC(=O)/C=C/[C@H](CCC(N)=O)NC(=O)[C@@H](CC(=O)[C@H](CC(C)C)NC(=O)SC1CCCC1)Cc1ccc(F)cc1 [(E)-(S)-6-Carbamoyl-4-[(2R,5S)-5-cyclopentylsulfanylcarbonylamino-2-(4-fluoro-benzyl)-7-methyl-4-oxo-octanoylamino]-hex-2-enoic acid ethyl ester] | 5.80 | 6.15 |  | 6.55 | 6.22
9 | CCOC(=O)/C=C/[C@H](CCC(N)=O)NC(=O)[C@@H](CC(=O)[C@@H](NC(=O)SC1CCCC1)C(C)C)Cc1ccc(C(F)(F)F)cc1 [(E)-(S)-6-Carbamoyl-4-[(2R,5S)-5-cyclopentylsulfanylcarbonylamino-6-methyl-4-oxo-2-(4-trifluoromethyl-benzyl)-heptanoylamino]-hex-2-enoic acid ethyl ester] | 6.80 |  |  | 7.30 | 
10 | CCOC(=O)/C=C/[C@H](CCC(N)=O)NC(=O)[C@@H](CC(=O)[C@@H](NC(=O)SC1CCCC1)C(C)(C)C)Cc1ccccc1 [(E)-(S)-4-((2R,5S)-2-Benzyl-5-cyclopentylsulfanylcarbonylamino-6,6-dimethyl-4-oxo-heptanoylamino)-6-carbamoyl-hex-2-enoic acid ethyl ester] |  |  |  | 7.30 | 6.37
11 | CCOC(=O)/C=C/[C@H](CCC(N)=O)NC(=O)[C@@H](CC(=O)[C@H](CC(C)C)NC(=O)OCc1ccccc1)Cc1ccccc1 [(E)-(S)-4-((2R,5S)-2-Benzyl-5-benzyloxycarbonylamino-7-methyl-4-oxo-octanoylamino)-6-carbamoyl-hex-2-enoic acid ethyl ester] |  |  |  | 6.44 | 

Reference: BindingDB's records for doi:10.1021/jm980537b (Agouron Pharmaceuticals, 1999)
